Experiment [1] deals with Escherichia coli LpxH (UDP-2,3-diacylglucosamine hydrolase) (Escherichia coli (strain K12), UniProt P43341). As to the kind of experiment: 50% Inhibitory Concentration (IC50) to LpxH, UMP/CMP-Glo Glycosyltransferase Assay kit. The experiment is classed as biochemical. On the procedure: Example 121: 50% Inhibitory Concentration (IC50) to UDP-2,3-diacylglucosamine hydrolase (LpxH)
The inhibitory potency of molecules to UDP-2,3-diacylglucosamine hydrolase (LpxH) was determined using the UMP/CMP-Glo™ Glycosyltransferase Assay kit. LpxH hydrolyzes the pyrophosphate bond of UDP-2,3-diacylglucosamine (UDP-DAG) to yield 2,3-diacylglucosamine 1-phosphate (lipid X) and UMP. The assay kit could quantify the UMP production by convert the UMP to ATP and generate light in a luciferase reaction. The compound's effect on the LpxH activity is detected by measuring the light using a luminometer (Envision).

The subject of a further experiment is E. coli (ATCC 25922). As to the kind of experiment: Minimal Inhibitory Concentration (MIC) assay, E. coli. Type of experiment: cell-based. The conditions noted are these: Escherichia coli, ATCC25922; E. coli ATCC 25922, CAMHB, 20 hours at 35° C.; read-out: MIC E. coli ATCC 25922. In outline:
(§1)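 Broth microdilution in cation-adjusted Mueller Hinton broth, inoculum 5×10^5 CFU/mL, compounds 2-fold serially diluted from 10 mM DMSO stocks. Plates incubated 20 hours at 35° C in ambient air; MIC (μg/mL) is the lowest concentration preventing visible growth.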

Experiment [2] concerns K. pneumonia (ATCC 43816). The experiment is described as follows: Minimal Inhibitory Concentration (MIC) assay, K. pneumonia. The experiment is classed as cell-based. The conditions noted are these: Klebsiella pneumoniae; K. pneumoniae ATCC43816, CAMHB, 20 hours at 35° C.; read-out: MIC K. pneumoniae ATCC43816. In outline:
as §1

SMILES strings stand for the structures. Converted amounts (≈) assume the structure as drawn.

Escherichia coli LpxH (UDP-2,3-diacylglucosamine hydrolase), sequence (P43341 whole entry): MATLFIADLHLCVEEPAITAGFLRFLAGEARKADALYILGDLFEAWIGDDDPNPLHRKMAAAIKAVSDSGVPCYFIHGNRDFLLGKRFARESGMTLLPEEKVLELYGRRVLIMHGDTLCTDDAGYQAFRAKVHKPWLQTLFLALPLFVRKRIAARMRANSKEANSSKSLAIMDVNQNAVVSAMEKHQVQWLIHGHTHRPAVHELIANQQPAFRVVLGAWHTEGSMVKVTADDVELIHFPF

Consider `O=C1OC2(CCNCC2)CN1c1ccc(S(=O)(=O)N2CCN(c3cc(C(F)(F)F)cc(Cl)n3)CC2)cc1` [Example 14, 3-[4-[4-[6-Chloro-4-(trifluoromethyl)-2-pyridyl]piperazin-1-yl]sulfonylphenyl]-1-oxa-3,8-diazaspiro[4.5]decan-2-one], for which the IC50 in experiment [1] was 0.0964 µM. The figures for the MIC (in the experiment with E. coli (ATCC 25922); in experiment [2]) were 1.75 mg/L (≈ 3.13 µM) and 3.5 mg/L (≈ 6.25 µM), respectively.

Consider `O=C1CC2(CCCCN2)CN1c1ccc(S(=O)(=O)N2CCN(c3cc(C(F)(F)F)cc(Cl)n3)CC2)cc1` (stereo not drawn) [Example 10, 2-[4-[4-[6-Chloro-4-(trifluoromethyl)-2-pyridyl]piperazin-1-yl]sulfonylphenyl]-2,6-diazaspiro[4.5]decan-3-one], for which, in experiment [1], the IC50 was 0.0197 µM. Also, the figures for the MIC (in the experiment with E. coli (ATCC 25922); in experiment [2]) were 1.05 mg/L (≈ 1.88 µM) and 4.2 mg/L (≈ 7.53 µM), respectively.

On to `N#CC1(c2cc(Cl)nc(N3CCN(S(=O)(=O)c4ccc(N5CC(N)CC5=O)cc4)CC3)c2)CC1` (stereo not drawn) [Example 71, 1-[2-[4-[4-(4-Amino-2-oxo-pyrrolidin-1-yl)phenyl]sulfonylpiperazin-1-yl]-6-chloro-4-pyridyl]cyclopropanecarbonitrile], for which, in experiment [1], the midpoint of inhibition, the IC50, lay at 0.591 µM. Besides, the MIC (with E. coli (ATCC 25922); in experiment [2]) was 12.5 mg/L (≈ 25 µM) in each case.

In turn, `NC1CC(=O)N(c2ccc(S(=O)(=O)N3CCN(c4cc(C(F)(F)c5cnccn5)cc(Cl)n4)CC3)cc2)C1` (stereo not drawn) [Example 93, 4-Amino-1-[4-[4-[6-chloro-4-[difluoro(pyrazin-2-yl)methyl]-2-pyridyl]piperazin-1-yl]sulfonylphenyl]pyrrolidin-2-one] gave an IC50 in experiment [1] of 0.0124 µM. Further, the MIC (with E. coli (ATCC 25922); in experiment [2]) was 1.76 mg/L (≈ 3.12 µM) in each case.

`NC1CC(=O)N(c2ccc(S(=O)(=O)N3CCN(c4cc(C(F)(F)C5CC6CCC(C5)O6)cc(Cl)n4)CC3)cc2)C1` (stereo not drawn) [Example 100, 4-Amino-1-[4-[4-[6-chloro-4-[difluoro(8-oxabicyclo[3.2.1]octan-3-yl)methyl]-2-pyridyl]piperazin-1-yl]sulfonylphenyl]pyrrolidin-2-one]: the IC50 in experiment [1] is < 0.00336 µM. For the same compound, the MIC in the experiment with E. coli (ATCC 25922) came out at 1.86 mg/L (≈ 3.12 µM); in experiment [2], 0.93 mg/L (≈ 1.56 µM).

`NC1CC(=O)N(c2ccc(S(=O)(=O)N3CCN(c4cc(C(F)(F)c5ccccc5)nc(Cl)n4)CC3)cc2)C1` (stereo not drawn) [Example 77, 4-Amino-1-[4-[4-[2-chloro-6-[difluoro(phenyl)methyl]pyrimidin-4-yl]piperazin-1-yl]sulfonylphenyl]pyrrolidin-2-one] had an IC50 in experiment [1] of 0.0071 µM. Besides, the MIC (with E. coli (ATCC 25922); in experiment [2]) was 0.44 mg/L (≈ 0.781 µM) in each case.

In turn, `NCC1CN(c2ccc(S(=O)(=O)N3CCN(c4cc(C(F)(F)F)cc(Cl)n4)CC3)c(F)c2)C(=O)O1` (stereo not drawn) [Example 64, 5-(Aminomethyl)-3-[4-[4-[6-chloro-4-(trifluoromethyl)-2-pyridyl]piperazin-1-yl]sulfonyl-3-fluoro-phenyl]oxazolidin-2-one] showed an IC50 in experiment [1] of 0.264 µM. Further, the figures for the MIC (in the experiment on E. coli (ATCC 25922); in experiment [2]) were 3.65 mg/L (≈ 6.79 µM) and 14.6 mg/L (≈ 27.1 µM), respectively.

For `O=C1CC(N2CC3(CNC3)C2)CN1c1ccc(S(=O)(=O)N2CCN(c3cc(C(F)(F)F)cc(Cl)n3)CC2)cc1` (stereo not drawn) [Example 52, 1-[4-[4-[6-Chloro-4-(trifluoromethyl)-2-pyridyl]piperazin-1-yl]sulfonylphenyl]-4-(2,6-diazaspiro[3.3]heptan-2-yl)pyrrolidin-2-one], the midpoint of inhibition in experiment [1], the IC50, lay at 0.0342 µM. The MIC (in the experiment on E. coli (ATCC 25922); in experiment [2]) was 17.5 mg/L (≈ 29.9 µM) in each case.

As to `N[C@@H]1CC(=O)N(c2ccc(S(=O)(=O)N3CCN(c4cc(C(F)(F)[C@H]5CNCCO5)cc(Cl)n4)CC3)cc2)C1` [Example 105, (4R)-4-amino-1-[4-[4-[6-chloro-4-[difluoro-[(2R)-morpholin-2-yl]methyl]-2-pyridyl]piperazin-1-yl]sulfonylphenyl]pyrrolidin-2-one], in experiment [1], the IC50 is 0.00525 µM. Also, the MIC (in the experiment with E. coli (ATCC 25922); in experiment [2]) was 1.79 mg/L (≈ 3.13 µM) each time.

In experiment [1], `NC1(C2CN(CC3CC(=O)N(c4ccc(S(=O)(=O)N5CCN(c6cc(C(F)(F)F)cc(Cl)n6)CC5)cc4)C3)C2)CC1` (stereo not drawn) [Example 39, 4-[[3-(1-Aminocyclopropyl)azetidin-1-yl]methyl]-1-[4-[4-[6-chloro-4-(trifluoromethyl)-2-pyridyl]piperazin-1-yl]sulfonylphenyl]pyrrolidin-2-one] had an IC50 of 0.013 µM. Further, the MIC in the experiment on E. coli (ATCC 25922) was found to be 0.96 mg/L (≈ 1.57 µM); in experiment [2], 1.92 mg/L (≈ 3.13 µM).

`O=C1OC(CO)CN1c1ccc(S(=O)(=O)N2CCN(c3cc(C(F)(F)[C@@H]4CNCCO4)cc(Cl)n3)CC2)cc1` (stereo partly drawn) [Example 110, 3-[4-[4-[6-Chloro-4-[difluoro-[(2S)-morpholin-2-yl]methyl]-2-pyridyl]piperazin-1-yl]sulfonylphenyl]-5-(hydroxymethyl)oxazolidin-2-one] had an IC50 in experiment [1] of 0.0034 µM. Also, the MIC (in the experiment on E. coli (ATCC 25922); in experiment [2]) was 0.99 mg/L (≈ 1.68 µM) in each case.

`CNCCN1CCC[C@H]2OC(=O)N(c3ccc(S(=O)(=O)N4CCN(c5cc(C(F)(F)F)cc(Cl)n5)CC4)cc3)[C@H]2C1` [Example 26, (3aS,8aR)-3-[4-[4-[6-chloro-4-(trifluoromethyl)-2-pyridyl]piperazin-1-yl]sulfonylphenyl]-5-[2-(methylamino)ethyl]-3a,4,6,7,8,8a-hexahydrooxazolo[4,5-c]azepin-2-one] showed an IC50 in experiment [1] of 0.0324 µM. Besides, the MIC in the experiment on E. coli (ATCC 25922) was 2.64 mg/L (≈ 4.28 µM); in experiment [2], 5.28 mg/L (≈ 8.56 µM).

Compound `NCC1CC(=O)N(c2ccc(S(=O)(=O)N3CCN(c4cc(C(F)(F)F)cc(Cl)n4)CC3)cc2)C1` (stereo not drawn) [Example 2, 4-(Aminomethyl)-1-[4-[4-[6-chloro-4-(trifluoromethyl)-2-pyridyl]piperazin-1-yl]sulfonyl-phenyl]pyrrolidin-2-one] showed an IC50 in experiment [1] of 0.0849 µM. The figures for the MIC (with E. coli (ATCC 25922); in experiment [2]) were 1.98 mg/L (≈ 3.82 µM) and 3.95 mg/L (≈ 7.63 µM), respectively.

As to `O=C1OC(CNC2CCNC2)CN1c1ccc(S(=O)(=O)N2CCN(c3cc(C(F)(F)F)cc(Cl)n3)CC2)cc1` (stereo not drawn) [Example 34, 3-[4-[4-[6-Chloro-4-(trifluoromethyl)-2-pyridyl]piperazin-1-yl]sulfonylphenyl]-5-[(pyrrolidin-3-ylamino)methyl]oxazolidin-2-one], in experiment [1], the IC50 was 0.0272 µM. For the same compound, the MIC (in the experiment with E. coli (ATCC 25922); in experiment [2]) was 4.39 mg/L (≈ 7.45 µM) each time.

In experiment [1], `NCCN1CCC[C@H]2OC(=O)N(c3ccc(S(=O)(=O)N4CCN(c5cc(C(F)(F)F)cc(Cl)n5)CC4)cc3)[C@H]2C1` [Example 25, (3aS,8aR)-5-(2-aminoethyl)-3-[4-[4-[6-chloro-4-(trifluoromethyl)-2-pyridyl]piperazin-1-yl]sulfonylphenyl]-3a,4,6,7,8,8a-hexahydrooxazolo[4,5-c]azepin-2-one] had an IC50 of 0.0249 µM. Also, the minimal inhibitory concentration (MIC) (in the experiment with E. coli (ATCC 25922); in experiment [2]) was 2.6 mg/L (≈ 4.31 µM) throughout.

In turn, `NC1CC(=O)N(c2ccc(S(=O)(=O)N3CCN(c4cc(Oc5ccccc5)cc(Cl)n4)CC3)cc2)C1` (stereo not drawn) [Example 72, 4-Amino-1-[4-[4-(6-chloro-4-phenoxy-2-pyridyl)piperazin-1-yl]sulfonylphenyl]pyrrolidin-2-one] gave an IC50 in experiment [1] of 0.407 µM. For the same compound, the MIC (in the experiment with E. coli (ATCC 25922); in experiment [2]) was 7.06 mg/L (≈ 13.4 µM) throughout.

In experiment [1], `O=C1OC(CN2C[C@@H](O)[C@@H](O)C2)CN1c1ccc(S(=O)(=O)N2CCN(c3cc(C(F)(F)F)cc(Cl)n3)CC2)cc1` (stereo partly drawn) [Example 30, 3-[4-[4-[6-Chloro-4-(trifluoromethyl)-2-pyridyl]piperazin-1-yl]sulfonylphenyl]-5-[[cis-3,4-dihydroxypyrrolidin-1-yl]methyl]oxazolidin-2-one] gave an IC50 of 0.0149 µM. For the same compound, the MIC in the experiment with E. coli (ATCC 25922) is 2.01 mg/L (≈ 3.32 µM); in experiment [2], 4.02 mg/L (≈ 6.63 µM).

Compound `N[C@H]1CN(c2ccc(S(=O)(=O)N3CCN(c4cc(C(F)(F)F)cc(Cl)n4)CC3)cc2)C1=O` [Example 7, (3S)-3-amino-1-[4-[4-[6-chloro-4-(trifluoromethyl)-2-pyridyl]piperazin-1-yl]sulfonylphenyl]azetidin-2-one] gave an IC50 in experiment [1] of 0.0633 µM. Further, the MIC in the experiment with E. coli (ATCC 25922) came to 3.78 mg/L (≈ 7.72 µM); in experiment [2] it was 5.66 mg/L (≈ 11.6 µM).

Consider `CNC1CC(=O)N(c2ccc(S(=O)(=O)N3CCN(c4cc(C(F)(F)F)cc(Cl)n4)CC3)cc2)C1` (stereo not drawn) [Example 44, 1-[4-[4-[6-chloro-4-(trifluoromethyl)-2-pyridyl]piperazin-1-yl]sulfonylphenyl]-4-(methylamino)pyrrolidin-2-one], for which half-maximal inhibition in experiment [1] (IC50) required 0.197 µM. Moreover, the MIC in the experiment with E. coli (ATCC 25922) worked out at 1.73 mg/L (≈ 3.34 µM); in experiment [2], 3.47 mg/L (≈ 6.7 µM).

As for `NC(=O)[C@H]1CC[C@H](C(F)(F)c2cc(Cl)nc(N3CCN(S(=O)(=O)c4ccc(N5C[C@H](N)CC5=O)cc4)CC3)c2)CC1` [Example 120, Trans-4-[[2-[4-[4-[(4R)-4-amino-2-oxo-pyrrolidin-1-yl]phenyl]sulfonylpiperazin-1-yl]-6-chloro-4-pyridyl]-difluoro-methyl]cyclohexanecarboxamide], the IC50 in experiment [1] was < 0.00327 µM. In addition, the MIC in the experiment on E. coli (ATCC 25922) came to 0.96 mg/L (≈ 1.57 µM); in experiment [2] it was 0.48 mg/L (≈ 0.785 µM).

For the compound `NCC1CN(CC2CN(c3ccc(S(=O)(=O)N4CCN(c5cc(C(F)(F)F)cc(Cl)n5)CC4)cc3)C(=O)O2)C1` (stereo not drawn) [Example 33, 5-[[3-(Aminomethyl)azetidin-1-yl]methyl]-3-[4-[4-[6-chloro-4-(trifluoromethyl)-2-pyridyl]piperazin-1-yl]sulfonylphenyl]oxazolidin-2-one], in experiment [1], the IC50 was 0.0153 µM. Also, the MIC in the experiment with E. coli (ATCC 25922) worked out at 1.1 mg/L (≈ 1.87 µM); in experiment [2] it was 2.2 mg/L (≈ 3.73 µM).

For orientation: IC50 means the midpoint of a concentration-inhibition curve. Lower therefore signals higher potency. Broadly, the MIC is the smallest concentration in the dilution series that meets the test's criterion for growth inhibition.

The values are drawn from patent publication US20250011300A1, “PIPERAZINYLSULFONYLARYL COMPOUNDS FOR TREATMENT OF BACTERIAL INFECTIONS” (Hoffmann-La Roche Inc., priority 2021, published 2025).
